Structures are written as SMILES.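 Protocol summary: plate cells (96-well), add compound at 5 concentrations, incubate 48 h, interpolate endpoints linearly. Abbreviation: GI50, concentration required for 50% inhibition of growth. TGI: total growth inhibition.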

In PubChem BioAssay (NCI) one finds GI50 and TGI data, which are given here for 15 compounds.

Among the test systems are 786-0 renal; A549 NSCLC; HOP-62 NSCLC; MOLT-4 leukemia; NCI-H460 lung; NCI-H522 lung; OVCAR-4 ovarian; SF-268 CNS; SK-OV-3 ovarian; UO-31 renal.
Assay in all cases: growth of human tumour cells (NCI), 48 h

As for `N#C[C@@H]1C(n2ccc(N)nc2=O)O[C@H](CO)[C@H]1O` (stereo not given in full), the GI50 with 786-0 renal was 13.2 µM; in the test with A549 NSCLC, 6.16 µM; in the test with HOP-62 NSCLC, 3.97 µM; in the test on MOLT-4 leukemia, 0.107 µM; in the test on NCI-H460 lung, 0.693 µM; in the test with NCI-H522 lung it was 4.24 µM. The GI50 in the test with OVCAR-4 ovarian was more than 100 µM; with SF-268 CNS it was 22.3 µM; with SK-OV-3 ovarian, 39.6 µM; in the test on UO-31 renal it was 6.18 µM. In addition, the TGI in the test with 786-0 renal, in the test on A549 NSCLC, with HOP-62 NSCLC, in the test with MOLT-4 leukemia, in the test with NCI-H460 lung and in the test with NCI-H522 lung was more than 100 µM in each case. Besides, the TGI is more than 100 µM in the test on OVCAR-4 ovarian, more than 100 µM in the test on SF-268 CNS, more than 100 µM with SK-OV-3 ovarian and more than 83.4 µM in the test on UO-31 renal.
Consider `COC(=O)C1=C(CS(=O)c2ccccc2[N+](=O)[O-])ON(C)C1c1ccccc1` (stereo not given), for which the TGI in the test on 786-0 renal is more than 100 µM; in the test with A549 NSCLC, more than 100 µM; with HOP-62 NSCLC, more than 100 µM; with MOLT-4 leukemia, more than 100 µM; in the test on NCI-H460 lung, more than 100 µM; in the test with NCI-H522 lung it was 38 µM. In addition, the TGI in the test on OVCAR-4 ovarian is more than 100 µM; with SF-268 CNS, 94.6 µM; in the test on SK-OV-3 ovarian it was more than 100 µM; in the test on UO-31 renal, more than 100 µM.
Take `CCN(CCNc1ccc(C)c2sc3ccccc3c(=O)c12)CC(C)(C)O`: the GI50 is 8.31 µM in the test with 786-0 renal; 6.84 µM in the test on A549 NSCLC; 14.6 µM in the test with HOP-62 NSCLC; 6.26 µM in the test with MOLT-4 leukemia; 3.24 µM in the test on NCI-H460 lung; 14.9 µM in the test on NCI-H522 lung. Besides, the GI50 is 21.2 µM in the test with OVCAR-4 ovarian, 14.9 µM with SF-268 CNS, 11.1 µM in the test with SK-OV-3 ovarian and 7.34 µM in the test with UO-31 renal. For the same compound, the TGI was 23 µM with 786-0 renal; 25.5 µM in the test on A549 NSCLC; 34.3 µM with HOP-62 NSCLC; more than 46 µM with MOLT-4 leukemia; 11.2 µM in the test on NCI-H460 lung; 47.8 µM in the test on NCI-H522 lung. Further, the TGI in the test with OVCAR-4 ovarian was more than 92.1 µM; in the test with SF-268 CNS, 32.2 µM; in the test with SK-OV-3 ovarian it was 27 µM; in the test with UO-31 renal, 24.3 µM.
Take `CCN1CSC(=S)N(CC)C1`: the TGI in the test with 786-0 renal is more than 100 µM; with A549 NSCLC, more than 100 µM; in the test on HOP-62 NSCLC, 71.1 µM; in the test on MOLT-4 leukemia, more than 100 µM; in the test on NCI-H460 lung, more than 100 µM; with NCI-H522 lung, more than 100 µM. In addition, the TGI with OVCAR-4 ovarian, in the test with SF-268 CNS, in the test on SK-OV-3 ovarian and in the test with UO-31 renal was more than 100 µM in each case.
For `CCOC(=O)C(=O)Nc1c(C(C)C)cccc1C(C)C`, the TGI in the test with 786-0 renal, in the test with A549 NSCLC, in the test on HOP-62 NSCLC, in the test with MOLT-4 leukemia, in the test on NCI-H460 lung and with NCI-H522 lung was more than 100 µM each time. The TGI with OVCAR-4 ovarian, in the test with SF-268 CNS, in the test with SK-OV-3 ovarian and with UO-31 renal was more than 100 µM in each case.
As to `Cc1c2cc[n+](C)cc2c(C)c2c1[nH]c1ccc(O)c(OCC(F)(F)F)c12`, the TGI is 9.35 µM in the test with 786-0 renal; 12.4 µM with A549 NSCLC; 5.28 µM in the test with HOP-62 NSCLC; 22.1 µM in the test on MOLT-4 leukemia; 48.6 µM with NCI-H460 lung; 3.55 µM with NCI-H522 lung. Besides, the TGI in the test with OVCAR-4 ovarian was 12.8 µM; in the test on SF-268 CNS, 1.1 µM; in the test with SK-OV-3 ovarian, 17.2 µM; in the test on UO-31 renal, 25.6 µM.
For `C1=CC=C2NCCOCCNC3=CC=CC=CC3=NCCOCCN=C2C=C1`, the TGI in the test on 786-0 renal, with A549 NSCLC, with HOP-62 NSCLC, in the test on MOLT-4 leukemia, in the test with NCI-H460 lung and in the test on NCI-H522 lung was more than 100 µM in each case. Further, the TGI with OVCAR-4 ovarian, in the test with SF-268 CNS, with SK-OV-3 ovarian and in the test with UO-31 renal was more than 100 µM in each case.
On to `CC(C)Oc1cc(O)c2c(c1)OCC=C2CCC(=O)O`, for which the TGI is more than 100 µM with 786-0 renal; more than 100 µM in the test on A549 NSCLC; more than 100 µM in the test with HOP-62 NSCLC; 91 µM in the test on MOLT-4 leukemia; more than 100 µM in the test on NCI-H460 lung; 59.3 µM with NCI-H522 lung. Further, the TGI is more than 100 µM in the test with OVCAR-4 ovarian, more than 100 µM in the test with SF-268 CNS, more than 100 µM in the test on SK-OV-3 ovarian and 89.1 µM in the test on UO-31 renal.
Consider `CC(C)(C)NC(=O)[C@H]1C[C@H]2CCCC[C@H]2CN1C[C@@H](O)[C@H](Cc1ccccc1)NC(=O)[C@H](CC(N)=O)NC(=O)c1ccc2ccccc2n1`, for which the GI50 with 786-0 renal was 13.8 µM; in the test on A549 NSCLC, 13.2 µM; with HOP-62 NSCLC it was 15.2 µM; in the test on MOLT-4 leukemia, 1.9 µM; with NCI-H460 lung, 12.7 µM; in the test on NCI-H522 lung, 15.6 µM. In addition, the GI50 in the test with OVCAR-4 ovarian is 14 µM; with SF-268 CNS, 13 µM; with SK-OV-3 ovarian, 18.9 µM; with UO-31 renal, 15.5 µM. Besides, the TGI in the test on 786-0 renal was 31.1 µM; in the test with A549 NSCLC it was 31 µM; with HOP-62 NSCLC, 30.7 µM; with MOLT-4 leukemia it was 21.8 µM; with NCI-H460 lung it was more than 51.4 µM; with NCI-H522 lung, 33.8 µM. Also, the TGI amounted to 31.5 µM in the test on OVCAR-4 ovarian, 30.1 µM in the test with SF-268 CNS, 42.9 µM with SK-OV-3 ovarian and 29.9 µM in the test with UO-31 renal.
Consider `C[C@]12CC[C@@H]3c4ccc(O)cc4C(O)C[C@H]3[C@@H]1CCC2=O` (stereo not given in full), for which the GI50 in the test with 786-0 renal was more than 100 µM; in the test on A549 NSCLC it was more than 100 µM; in the test with HOP-62 NSCLC, more than 100 µM; in the test with MOLT-4 leukemia, more than 100 µM; in the test with NCI-H460 lung, more than 100 µM; in the test with NCI-H522 lung it was 60.8 µM. For the same compound, the GI50 is 61.1 µM with OVCAR-4 ovarian, more than 100 µM with SF-268 CNS, more than 100 µM with SK-OV-3 ovarian and 53.8 µM with UO-31 renal. Also, the TGI with 786-0 renal, in the test on A549 NSCLC, in the test with HOP-62 NSCLC, in the test with MOLT-4 leukemia, in the test on NCI-H460 lung and with NCI-H522 lung was more than 100 µM throughout. Besides, the TGI in the test on OVCAR-4 ovarian, in the test with SF-268 CNS, with SK-OV-3 ovarian and with UO-31 renal was more than 100 µM in each case.
Consider `O=C(O)CSc1ncccc1[N+](=O)[O-]`, for which the TGI with 786-0 renal, in the test with A549 NSCLC, with HOP-62 NSCLC, in the test on MOLT-4 leukemia, with NCI-H460 lung and with NCI-H522 lung was more than 100 µM each time. The TGI with OVCAR-4 ovarian, in the test on SF-268 CNS, with SK-OV-3 ovarian and in the test with UO-31 renal was more than 100 µM in each case.
As for `CC(=O)O[C@@H]1C2C(=O)OC(=O)C2C2CCC[C@]23O[C@H]13` (stereo not given in full), the TGI in the test on 786-0 renal, in the test on A549 NSCLC, with HOP-62 NSCLC, in the test on MOLT-4 leukemia, in the test on NCI-H460 lung and in the test on NCI-H522 lung was more than 100 µM each time. Further, the TGI with OVCAR-4 ovarian, with SF-268 CNS, in the test on SK-OV-3 ovarian and in the test on UO-31 renal was more than 100 µM throughout.
`C=C=C(C(=O)OC)S(=O)c1ccc([N+](=O)[O-])cc1[N+](=O)[O-]` (stereo not given): the TGI with 786-0 renal was more than 66.6 µM; with A549 NSCLC it was more than 100 µM; in the test on HOP-62 NSCLC it was more than 82.5 µM; in the test with MOLT-4 leukemia, 50.3 µM; in the test on NCI-H460 lung, more than 91.2 µM; in the test with NCI-H522 lung, 21 µM. The TGI in the test with OVCAR-4 ovarian was 63.6 µM; with SF-268 CNS, more than 74.6 µM; in the test on SK-OV-3 ovarian it was more than 100 µM; in the test with UO-31 renal it was 98.2 µM.
Regarding `CCCCCCN(CCCCCC)CC(O)c1ccc2c3c(cccc13)CC2` (stereo not given), the GI50 in the test with 786-0 renal was 6.15 µM; in the test with A549 NSCLC, 10.4 µM; with HOP-62 NSCLC, 12.1 µM; in the test on MOLT-4 leukemia, 4.36 µM; in the test with NCI-H460 lung, 3.36 µM; with NCI-H522 lung it was 3.14 µM. In addition, the GI50 in the test on OVCAR-4 ovarian was 10.3 µM; in the test with SF-268 CNS, 12 µM; in the test on SK-OV-3 ovarian it was 14.1 µM; with UO-31 renal it was 3.09 µM. For the same compound, the TGI is 20.2 µM in the test with 786-0 renal; 24 µM in the test with A549 NSCLC; 24.7 µM with HOP-62 NSCLC; 22.7 µM with MOLT-4 leukemia; 17 µM with NCI-H460 lung; 13.2 µM in the test with NCI-H522 lung. In addition, the TGI with OVCAR-4 ovarian stood at 36.8 µM; in the test with SF-268 CNS, 24.9 µM; with SK-OV-3 ovarian it was 27.6 µM; in the test on UO-31 renal it was 17.3 µM.
In the case of `COc1cc(S(C)(=O)=O)ccc1Nc1nc2ccc(-c3ccc(NC(=O)[C@H](C)c4ccc(F)cc4)cc3)cn2n1`, the GI50 with 786-0 renal is more than 100 µM; in the test with A549 NSCLC, 98.5 µM; in the test with HOP-62 NSCLC it was more than 100 µM; in the test with MOLT-4 leukemia, 1.18 µM; in the test on NCI-H460 lung, 0.0821 µM; in the test on NCI-H522 lung, more than 100 µM. In addition, the GI50 in the test on OVCAR-4 ovarian, in the test with SF-268 CNS, in the test with SK-OV-3 ovarian and with UO-31 renal was more than 100 µM throughout. The TGI with 786-0 renal, in the test on A549 NSCLC, with HOP-62 NSCLC, in the test with MOLT-4 leukemia, with NCI-H460 lung and with NCI-H522 lung was more than 100 µM each time. Besides, the TGI with OVCAR-4 ovarian, with SF-268 CNS, with SK-OV-3 ovarian and in the test on UO-31 renal was more than 100 µM in each case.
